Results: PubChem BioAssay (NCI)
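Interpolation was linear, between the two tested concentrations surrounding the appropriate level; five concentrations were tested over 48 hours in 96-well plates. TGI denotes the concentration required for complete inhibition of growth.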 *1 amine or outer side, *2 acyl side, *3 side chain or, on linkers, in order; H or OH if unused. Where a SMILES comes first, the peptide text is derived from it. Bridges are numbered along the chain shown (N, C = ends). [ ]: non-standard residue; d: D form. X35 = CC[C@H](C)[C@@H](N[*:1])[C@@H](O)CC(=O)O[C@H](C(=O)[C@H](C)C(=O)[*:2])C(C)C; NMeY = CN[C@@H](Cc1ccc(O)cc1)C(=O)O

Experiments:
Test in all cases: NCI anticancer screen, dose series, 48 h
[1] = tested on: BT-549 breast
[2] = tested on: CAKI-1 renal
[3] = tested on: DU-145 prostate
[4] = tested on: HCC-2998 colon
[5] = tested on: HCT-116 colon
[6] = tested on: HCT-15 colon
[7] = tested on: MDA-MB-231 breast
[8] = tested on: MDA-MB-435
[9] = tested on: NCI-H460 lung
[10] = tested on: OVCAR-4 ovarian
[11] = tested on: SF-539 CNS
[12] = tested on: SW-620 colon
[13] = tested on: TK-10 renal
[14] = tested on: CCRF-CEM leukemia
[15] = tested on: K-562 leukemia
[16] = tested on: MCF7 breast
[17] = tested on: PC-3 prostate

Measured: TGI

C/C(O)=C(\C=N\C(=S)N=Nc1c(O)[nH]c2ccccc12)C(=O)Nc1ccccc1C
not listed: [14] | [15] | [16] | [17]
> 100 µM: all other assays above

c1ccc2sc(SSSc3nc4ccccc4s3)nc2c1
not listed: [11]
> 100 µM: all other assays above

C=C1CC[C@@H]2C13[C@@H]1[C@H](CC(=O)[C@@]23C)C1(C)C (stereo not given in full)
not listed: [4] | [7] | [14]
> 100 µM: all other assays above

C=C(COCO)C(C)=O
34.5 µM: [16]
34.8 µM: [17]
48.2 µM: [9]
39.6 µM: [6]
> 27 µM: [15]
5.42 µM: [2]
> 58.4 µM: [4]
33.6 µM: [7]
11.1 µM: [12]
26.7 µM: [5]
26.9 µM: [13]
> 65.8 µM: [3]
37.2 µM: [10]
28.3 µM: [8]
9.64 µM: [14]
13.6 µM: [11]

COc1ccccc1-n1nnc2c(N)nc(N)nc21
not listed: [4]
> 100 µM: all other assays above

O=C(Sc1c(-c2ccccc2)c(=O)n(-c2ccccc2)c(=S)n1-c1ccccc1)c1ccccc1
76.3 µM: [14]
not listed: [4] | [7] | [11]
> 100 µM: all other assays above

CCc1n[nH]c(=O)n1CC
not listed: [17]
> 100 µM: all other assays above

Clc1sc(Cl)c2c1[C@H](Cl)C[C@@H]2Cl
62.5 µM: [1]
96.9 µM: [3]
33.4 µM: [4]
85.1 µM: [13]
44.5 µM: [2]
20.9 µM: [5]
52.7 µM: [10]
40.2 µM: [8]
19.6 µM: [12]
41.3 µM: [6]
42.4 µM: [11]
90.5 µM: [7]
not listed: [17]
> 100 µM: all other assays above

CC[C@H](C)[C@H]1NC(=O)[C@@H](N)[C@@H](C)OC(=O)[C@H](Cc2ccc(OC)cc2)N(C)C(=O)[C@@H]2CCCN2C(=O)[C@H](CC(C)C)NC(=O)[C@@H](C)C(=O)[C@H](C(C)C)OC(=O)C[C@@H]1O (H-T[X35]LP[NMeY](Me); ester 1-C)
66.2 µM: [11]
45.9 µM: [1]
56.1 µM: [8]
50.1 µM: [12]
not listed: [2] | [3] | [5] | [7]
> 100 µM: all other assays above

CN1CCC2(c3ccccc3)CC(=O)/C(=C/c3ccc(Cl)c(Cl)c3)C1C2 (stereo not given)
> 21.6 µM: [12]
13.8 µM: [2]
7.28 µM: [15]
6.83 µM: [1]
5.14 µM: [8]
4.52 µM: [17]
11.7 µM: [13]
5.15 µM: [14]
11.9 µM: [3]
7.21 µM: [10]
3.21 µM: [7]
4.59 µM: [6]
4.35 µM: [11]
> 21 µM: [5]
5.94 µM: [9]
17.3 µM: [16]

CCCCC(=O)/C=c1/cc(C)[nH]c2cccc3cnn1c32
not listed: [4] | [9] | [15]
> 100 µM: all other assays above

COc1cc(S(=O)(=O)Nc2ccc(-c3csc(N4C(=O)C(C)SC4c4cccs4)n3)cc2)ccc1Cl (stereo not given)
52.2 µM: [14]
53.1 µM: [3]
not listed: [4] | [7] | [9] | [10] | [13]
> 100 µM: all other assays above

CCOC(=O)[C@@H]1[C@@H](c2ccccc2)N(C)O[C@@]1(c1ccccc1)C(F)(F)F
60.7 µM: [14]
not listed: [4] | [9] | [11] | [15] | [16]
> 100 µM: all other assays above

O=c1[nH]c(=O)c2c([nH]1)[nH]c1ccc(Br)cc12
not listed: [9] | [10] | [15] | [17]
> 100 µM: all other assays above

Cn1c(=O)c2ccccc2[n+]2c(-c3cccc([N+](=O)[O-])c3)csc12
not listed: [1] | [6]
> 100 µM: all other assays above

CC1(C)CC[C@]2(C(=O)O)CC[C@]3(C)C(=CCC4=C5C[C@H](O)[C@H](O)[C@@](C)(CO)[C@@]5(C)CC[C@]43C)[C@@H]2C1
87.2 µM: [2]
81.8 µM: [9]
64.1 µM: [4]
71.4 µM: [10]
not listed: [1]
> 100 µM: all other assays above

CN(C)c1ccc(C=Nc2ccc(-c3nc4ccccc4s3)cc2)cc1
71.5 µM: [17]
93.2 µM: [9]
44.5 µM: [4]
76.5 µM: [16]
75.8 µM: [13]
10.9 µM: [14]
not listed: [7]
> 100 µM: all other assays above

COc1ccc(-c2sc(Br)c3c2C(=O)C2OC(=O)NC32)cc1OC (stereo not given)
not listed: [4]
> 100 µM: all other assays above

COC(=O)C1(C(=O)OC)N=C(C)OC1c1ccccc1O (stereo not given)
not listed: [7] | [11]
> 100 µM: all other assays above

Cc1ccc(Sc2ccccc2C23OC(C)(C4C(=O)N(c5ccccc5)C(=O)C42)N(C)C3=O)cc1 (stereo not given)
not listed: [4] | [16]
> 100 µM: all other assays above

CC1(c2ccccc2)O[C@@H]2C[C@H]3[C@@H]4CCC5=CC(=O)C=C[C@]5(C)[C@@]4(F)[C@@H](O)C[C@]3(C)[C@]2(C(=O)CO)O1 (stereo not given in full)
29.9 µM: [16]
24.5 µM: [7]
35 µM: [3]
28.3 µM: [10]
29.8 µM: [9]
27.8 µM: [5]
30.9 µM: [17]
36 µM: [6]
38.6 µM: [1]
41.6 µM: [13]
34.4 µM: [15]
56 µM: [2]
33.3 µM: [4]
33.1 µM: [8]
47.1 µM: [12]

O=C(OCc1ccccc1)C(Cc1ccc(OCc2ccccc2)cn1)NC(=O)C(F)(F)F (stereo not given)
not listed: [14] | [16]
> 100 µM: all other assays above

COc1ccc(Cc2cc(Cc3ccc(OC)cc3)cc(Cc3ccc(OC)cc3)c2)cc1
not listed: [2] | [14]
> 100 µM: all other assays above

CC(C)(C)OC(=O)N(O)[C@@H]1CC[C@H](n2cnc3c(N)ncnc32)C1
not listed: [2]
> 100 µM: all other assays above

Cc1cc(C)c(NS(=O)c2cccc(C(F)(F)F)c2)c(C)c1 (stereo not given)
not listed: [2] | [4] | [5] | [7] | [10]
> 100 µM: all other assays above

CCN(CC)CCNc1ccc2ncn3c4ccc(OC)cc4c(=O)c1c23
13.7 µM: [4]
19 µM: [14]
20 µM: [11]
> 100 µM: [16]
15.1 µM: [6]
11.1 µM: [12]
33 µM: [1]
18.8 µM: [17]
29.2 µM: [13]
13.5 µM: [5]
18.6 µM: [8]
20.7 µM: [3]
21 µM: [2]
22.7 µM: [15]
5.52 µM: [9]
8.89 µM: [10]

COCn1cc(C2=C(C)C(=O)C(C)=C(C)C2=O)cn1
42.6 µM: [15]
33.9 µM: [8]
36.7 µM: [5]
60.8 µM: [14]
40.8 µM: [7]
31.7 µM: [10]
not listed: [1]
> 100 µM: all other assays above

CC1(C)Cc2c(sc3[nH]c(=S)[nH]c(=S)c23)CS1
65.8 µM: [10]
not listed: [4]
> 100 µM: all other assays above

Cc1ccc(N2C(=O)C3c4[nH]c5ccc(C)cc5c4C4CCC(C(C)(C)C)CC4C3C2=O)cc1 (stereo not given)
16.1 µM: [15]
58.7 µM: [12]
37.1 µM: [5]
55.1 µM: [8]
45.3 µM: [2]
26.7 µM: [14] | [7]
28.7 µM: [16]
20.9 µM: [10]
70.3 µM: [17]
75.9 µM: [1]
> 100 µM: [6]
39.5 µM: [13]
62 µM: [3]
20.4 µM: [9]
